According to patent US9119396B2, “Method for promoting plant growth” (SUMITOMO CHEMICAL COMPANY, LIMITED, priority 2011, dated 2015):

Tested on: Wheat (cultivar: Apogee)
Assay: Test Example 10: reduction of high-temperature stress by spraying treatment of wheat
Assay type: in vivo
Conditions: spray solution 1 ppm, high-temperature stress 36° C./32° C. 7 days, 90 days after the stress treatment
Method: Evaluation Test for Reduction of High-Temperature Stress by Spraying Treatment of Wheat
Five wheat seeds were sown in the culture soil (AISAI) in each plastic pot and cultivated for 28 days in an artificial weather control room under the conditions of a temperature of 18° C. in daytime/15° C. in night, and an illuminance of 7,000 lux. Before the stress test, 3 individuals per pot were removed.
To 0.5 mg of the present compound 1 were added 120 mg of a mixture (weight ratio 1:1) of white carbon and ammonium polyoxyethylene alkyl ether sulfate and 300 μl of water. The mixture was finely ground by a wet grinding method to obtain a flowable formulation of the present compound 1. This flowable formulation was diluted with 500 ml of water. The mixture was diluted with RINO (manufactured by NIHON NOHYAKU CO., LTD) as a spreading agent to 5,000-fold dilution to obtain a spray solution containing 1 ppm of the present compound 1. […]
After the high-temperature stress treatment, the plants were cultivated in an artificial weather control room under the conditions of a temperature of 18° C. in daytime/15° C. in night, and a illuminance of 7,000 lux. Then, 90 days after the high-temperature stress treatment, the number and the weight of seeds in ears of the tested plants in 7 or 8 pots were measured, and the average values of the number and the weight of seeds per one ear were calculated. […]

`COC(=O)c1cc2cc(C(F)(F)F)ccc2s1` [compound 1] was tested, and the “number of seeds per one ear vs non-treated group” value was “much larger” and the “weight of seeds per one ear vs non-treated group” value was “much larger”.
